Results taken from patent US20250269043A1, “TARGETED BIFUNCTIONAL DEGRADERS” (YALE UNIVERSITY, priority 2019, published 2025).
Values joined by “and” are separate entries in the source; they are usually repeats but may differ in a detail not shown here. Equal entries are not always repeated.

Tests used:
HepG2 cells = assay: MIF-GN3-mediated endocytosis of Alexa 488-labeled human MIF by HepG2 cells; settings: FIG. 131
Method: Human MIF protein was fluorescently labeled with Alexa 488 NHS ester, then incubated with HepG2 cells in the presence of varying levels of MIF-GN3.
The ability of MIF-GN3 to mediate MIF endocytosis over a wide range of target protein concentrations was assessed.
Next, inhibitors of various endocytic pathways were utilized to determine if MIF-GN3 mediates MIF endocytosis in a manner consistent with ASGPR (FIG. 132).

PC3 cells = assay: PC3 human prostate cancer cell tumor model in mice; assay type: in vivo; settings: for tumor growth: FIG. 138
Method: The ability of MIF-GN3 to mediate the depletion of MIF in a therapeutically relevant disease model was investigated. […] An experiment was conducted to determine whether the bifunctional molecule MIF-GN3 can deplete sufficient human MIF from serum to slow PC3 tumor growth. Mice were injected with an aliquot of PC3 cells, and the size of the resultant tumors as well as the levels of human MIF in serum were monitored over five weeks. […] Five weeks after the initial PC3 cell injection, the first of the mice reached maximal tumor size ([…]) and was sacrificed (FIG. 138). […] The decrease in human MIF levels mediated by MIF-GN3 is consistent with a mechanism of action in which MIF-GN3 mediates the depletion and degradation of circulating MIF protein. While the α-MIF antibody would not necessarily be expected to decrease the levels of human MIF, it is possible that the antibody mediates MIF neutralization in a manner which masks its signal as determined by ELISA. Alternatively, the α-MIF antibody may mediate depletion or degradation of huMIF by some endocytic mechanism. Another possible explanation is that the α-MIF antibody decrease serum levels of active human MIF to such an extent at early time points that PC3 cells proliferate much more slowly, and therefore fewer cells are actively secreting human MIF.
Mice were sacrificed when their tumor volumes reached 1000 mm^3. […] At this same time point, less than 25% of the mice in any other arm had survived.

human MIF = target: T1, human MIF (Homo sapiens, UniProt P14174); assay: Depletion of injected recombinant human MIF from serum in mice; assay type: in vivo; parameters: injected into mice; settings: for depletion of human MIF protein from serum: 30 minutes, FIG. 135
T1 sequence (P14174 2-115 limits assumed): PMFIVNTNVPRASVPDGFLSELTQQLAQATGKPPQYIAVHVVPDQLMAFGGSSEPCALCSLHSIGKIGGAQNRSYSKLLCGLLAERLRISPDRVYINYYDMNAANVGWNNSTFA
Method: In vivo human MIF depletion experiments were undertaken to determine whether MIF-GN3 can mediate the depletion of injected recombinant human MIF from serum in mice. Mice were injected with five μg of the human MIF protein. In this experiment, one group of mice was also injected with a single 10 mpk dose of MLF-GN3 along with human MIF protein. It was observed that after four hours, the average level of human MIF in serum in the PBS-treated mice was 1.76 ng/mL (FIG. 134). In mice treated with 10 mpk MIF-GN3, however, the concentration of human MIF in serum was 0.68 ng/mL. One day after the initial injection, human MIF levels had reached background levels for both conditions. […] It was hypothesized that, due to the short half-life of human MIF in serum, investigating human MIF levels at earlier time points may be more informative.
Next, an experiment was performed to determine whether MIF-GN3 could enhance MIF clearance at time points earlier than four hours. Mice were coinjected with recombinant human MIF and 10 mpk MIF-GN3 via either i.p. or i.v. routes. For the PBS control arms, human MIF was injected with PBS. It was observed that in the absence of MIF-GN3, there was a spike in huMIF levels in circulation after 30 minutes (FIG. 135). In the presence of MIF-GN3, however, levels of MIF protein remained low at 30 minutes and no spike in its concentration was observed. By two hours, the levels of human MIF in circulation decreased to background levels.
In a further experiment, whether an inhibitor of the MIF protein (3w) is able to mediate the protein's depletion from serum was determined. A bifunctional molecule that mediates the depletion of α-DNP antibody from serum was also assayed as a negative control. Neither of these molecules was expected to mediate the formation of a ternary complex between human MIF protein and ASGPR.

[1] = target: T2, ASGPR on the surface of HepG2 cells and α-DNP antibody (Homo sapiens, UniProt P07306+P07307); assay: DNP-GN3-mediated ternary complex formation: association of fluorescently labeled α-DNP antibody with HepG2 cells in suspension; assay type: cell-based; settings: for concentration of DNP-GN3 eliciting half-maximal fluorescence association: FIG. 86A
T2 sequence (P07306 1-291): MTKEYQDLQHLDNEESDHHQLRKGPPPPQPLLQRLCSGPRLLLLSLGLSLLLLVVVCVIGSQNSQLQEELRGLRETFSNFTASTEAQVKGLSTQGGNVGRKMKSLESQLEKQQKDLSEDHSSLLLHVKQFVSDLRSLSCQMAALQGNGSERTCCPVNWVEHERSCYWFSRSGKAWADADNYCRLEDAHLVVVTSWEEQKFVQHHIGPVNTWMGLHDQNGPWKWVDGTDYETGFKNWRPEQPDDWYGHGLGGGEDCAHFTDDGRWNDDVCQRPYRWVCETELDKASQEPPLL
T2 sequence (P07307 1-311): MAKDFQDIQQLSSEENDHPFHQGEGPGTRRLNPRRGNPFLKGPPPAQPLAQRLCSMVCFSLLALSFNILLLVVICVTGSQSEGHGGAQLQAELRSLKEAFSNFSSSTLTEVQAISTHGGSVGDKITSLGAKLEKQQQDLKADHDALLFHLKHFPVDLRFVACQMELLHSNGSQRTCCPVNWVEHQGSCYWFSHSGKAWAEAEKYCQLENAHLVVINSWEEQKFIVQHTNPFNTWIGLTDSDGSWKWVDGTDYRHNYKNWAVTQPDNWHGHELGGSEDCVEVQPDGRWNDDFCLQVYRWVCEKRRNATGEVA
Source text: It was investigated whether DNP-GN3 could mediate the formation of a ternary complex between a fluorescently labeled α-DNP antibody and ASGPR on the surface of immortalized human hepatocyte HepG2 cells in suspension. […] The observed bell-shaped response to DNP-GN3 concentration is consistent with the prozone effect commonly observed in systems wherein a ternary complex is formed.

[2] = MIF-GN3 at 10 mpk, control arms DNP-GN3 and 3w

| SMILES | fluorescence of cells relative to cells not treated with bifunctional molecule (HepG2 cells; MIF protein 10 nM, 200 nM MIF-GN3) | MIF uptake at high concentration compared to lower concentrations (HepG2 cells; MIF protein 100 nM, MIF-GN3 5.00 μM) | levels of human MIF protein in the serum (PC3 cells; MIF-GN3 1 mpk, α-MIF antibody arm, FIG. 139) | tumor growth (PC3 cells; [2]) | tumor growth (PC3 cells; MIF-GN3 at a dose of 1 mpk, α-MIF antibody arm) | survival (PC3 cells; eight weeks after the initial PC3 cell injection, MIF-GN3 1 mpk, FIG. 140) | depletion of human MIF protein from serum (human MIF; 10 mpk coinjected i.p.) | depletion of human MIF protein from serum (human MIF; 10 mpk coinjected i.v.) | human MIF levels in serum compared to the PBS control (human MIF; one mpk, 40 and 60 minute time points, FIG. 136) | concentration of human MIF in serum (human MIF; single 10 mpk dose with five μg human MIF, after four hours, PBS-treated 1.76 ng/mL, difference not significant, FIG. 134) | human MIF levels in serum compared to the PBS control (human MIF; ten mpk, 40 and 60 minutes, FIG. 136) | concentration of maximal ternary complex formation ([1]; DNP-GN3) | concentration of DNP-GN3 eliciting half-maximal fluorescence association ([1]; higher of the two half-maximal concentrations of the bell-shaped response (prozone effect)) | concentration of DNP-GN3 eliciting half-maximal fluorescence association ([1]; lower of the two half-maximal concentrations of the bell-shaped response) | human MIF concentration in serum compared to the PBS control (human MIF; control molecules injected along with human MIF, FIG. 136) |
| --- | --- | --- | --- | --- | --- | --- | --- | --- | --- | --- | --- | --- | --- | --- | --- |
| CC(=O)N[C@H]1[C@H](OCCOCCOCCNC(=O)CCOCC(COCCC(=O)NCCOCCOCCO[C@@H]2O[C@H](CO)[C@H](O)[C@H](O)[C@H]2NC(C)=O)(COCCC(=O)NCCOCCOCCO[C@@H]2O[C@H](CO)[C@H](O)[C@H](O)[C@H]2NC(C)=O)NC(=O)CNC(=O)CCCOc2ccc3nc(-c4cn(-c5ccc(O)c(F)c5)nn4)ccc3c2)O[C@H](CO)[C@H](O)[C@@H]1O [MIF-GN3] | 4 fold | slight decrease in MIF uptake | decreased levels | not found to decrease tumor growth | delay in tumor growth | 80% | significant depletion | significant depletion | significant decrease | 0.68 ng/mL | significant decreases | – | – | – | – |
| CC(=O)NC1C(OCCOCCOCCNC(=O)CCOCC(COCCC(=O)NCCOCCOCCOC2OC(CO)C(O)C(O)C2NC(C)=O)(COCCC(=O)NCCOCCOCCOC2OC(CO)C(O)C(O)C2NC(C)=O)NC(=O)CNC(=O)COCCOCCOCCNc2ccc([N+](=O)[O-])cc2[N+](=O)[O-])OC(CO)C(O)C1O (stereo not shown) [DNP-GN3] | – | – | – | not found to decrease tumor growth | – | – | – | – | – | – | – | 20 nM and 40 nM | 0.12 µM | 0.0074 µM | no significant decreases |
